From patent US8648094B2, “IAP BIR domain binding compounds” (Pharmascience, Inc., priority 2006, dated 2014)

Test system: SKOV-3 cells
Assay: Survival MTT assay
Assay type: cell-based
Settings: Homo sapiens, SK-OV-3, 72 hours
Description: One day prior the treatment with compound, 2000 to 4000 cells per well were plated in a tissue culture treated 96 well format dish with 100 uL of media and incubated at 37° C., 5% CO2. On the day of compound treatment, compounds were diluted with cell culture media to a working stock concentration of 2×. 100 ul of diluted compound were then added to each well. The treated plate was incubated for 72 hours at 37° C., 5% CO2. Upon incubation, the cell viability was assessed as follows; 20 uL of MTT reagent (5 mg/mL) were added per well to cell plate. The plate was incubated for 2 hrs at 37° C. in presence of 5% CO2. The supernatant was then removed from the plate and 100 uL of isopropanol was added. The absorbance was measured in a TECAN spectrophotometer at 570 nm. The percentage of viability was expressed in percentage of the signal obtained with non treated cells.

| SMILES | EC50 |
| --- | --- |
| CN[C@@H](C)C(=O)N[C@H](C(=O)N1CCC[C@H]1CN(CCc1ccccc1)C(=O)c1ccc(-c2ccc(C(=O)N(CCc3ccccc3)C[C@@H]3CCCN3C(=O)[C@@H](NC(=O)[C@H](C)NC)C(C)(C)C)cc2)cc1)C(C)(C)C [Compound 4] | < 10 nM |
| CN[C@@H](C)C(=O)N[C@H](C(=O)N1CCC[C@H]1CN(CCc1ccccc1)C(=O)[C@H]1CCCN1C(=O)c1ccc(C(=O)N2CCC[C@@H]2C(=O)N(CCc2ccccc2)C[C@@H]2CCCN2C(=O)[C@@H](NC(=O)[C@H](C)NC)C(C)(C)C)cc1)C(C)(C)C [Compound 81] | > 25 nM |
| CN[C@@H](C)C(=O)N[C@H](C(=O)N1CCC[C@H]1CN(CCc1ccccc1)S(=O)(=O)c1ccc2ccc(S(=O)(=O)N(CCc3ccccc3)C[C@@H]3CCCN3C(=O)[C@@H](NC(=O)[C@H](C)NC)C(C)(C)C)cc2c1)C(C)(C)C [Compound 90] | 10 to 25 nM |
| CN[C@@H](C)C(=O)N[C@H](C(=O)N1CCC[C@H]1CN(CCc1ccccc1)C(=O)[C@H](C)NC(=O)c1ccc(C(=O)N[C@@H](C)C(=O)N(CCc2ccccc2)C[C@@H]2CCCN2C(=O)[C@@H](NC(=O)[C@H](C)NC)C(C)(C)C)cc1)C(C)(C)C [Compound 62] | > 25 nM |
| CN[C@@H](C)C(=O)N[C@H](C(=O)N1CCC[C@H]1CN(CCc1ccc(F)cc1)C(=O)CNC(=O)c1ccc(-c2ccc(C(=O)NCC(=O)N(CCc3ccc(F)cc3)C[C@@H]3CCCN3C(=O)[C@@H](NC(=O)[C@H](C)NC)C(C)(C)C)cc2)cc1)C(C)(C)C [Compound 76] | < 10 nM |
| CN[C@@H](C)C(=O)N[C@H](C(=O)N1CCC[C@H]1CN(CCc1ccccc1F)C(=O)CCCCCCCCC(=O)N(CCc1ccccc1F)C[C@@H]1CCCN1C(=O)[C@@H](NC(=O)[C@H](C)NC)C(C)(C)C)C(C)(C)C [Compound 46] | < 10 nM |
| CN[C@@H](C)C(=O)N[C@H](C(=O)N1CCC[C@H]1CN(CCc1ccc(F)cc1)C(=O)CNC(=O)c1cccc(C(=O)NCC(=O)N(CCc2ccc(F)cc2)C[C@@H]2CCCN2C(=O)[C@@H](NC(=O)[C@H](C)NC)C(C)(C)C)c1)C(C)(C)C [Compound 83] | < 10 nM |
| CN[C@@H](C)C(=O)N[C@H](C(=O)N1CCC[C@H]1CN(CCc1ccc(F)cc1)S(=O)(=O)c1cccc(S(=O)(=O)N(CCc2ccc(F)cc2)C[C@@H]2CCCN2C(=O)[C@@H](NC(=O)[C@H](C)NC)C(C)(C)C)c1)C(C)(C)C [Compound 57] | 10 to 25 nM |
| CN[C@@H](C)C(=O)N[C@H](C(=O)N1CCC[C@H]1CN(CCc1ccccc1)C(=O)CN(C)C(=O)c1ccc(-c2ccc(C(=O)N(C)CC(=O)N(CCc3ccccc3)C[C@@H]3CCCN3C(=O)[C@@H](NC(=O)[C@H](C)NC)C(C)(C)C)cc2)cc1)C(C)(C)C [Compound 77] | 10 to 25 nM |
| CN[C@@H](C)C(=O)N[C@H](C(=O)N1CCC[C@H]1CN(CCc1ccc(F)cc1)C(=O)CCC(=O)N(CCc1ccc(F)cc1)C[C@@H]1CCCN1C(=O)[C@@H](NC(=O)[C@H](C)NC)C(C)(C)C)C(C)(C)C [Compound 48] | 10 to 25 nM |
| CN[C@@H](C)C(=O)N[C@H](C(=O)N1CCC[C@H]1CN(CCc1ccccc1)C(=O)CN(C)Cc1ccc(CN(C)CC(=O)N(CCc2ccccc2)C[C@@H]2CCCN2C(=O)[C@@H](NC(=O)[C@H](C)NC)C(C)(C)C)cc1)C(C)(C)C [Compound 43] | 10 to 25 nM |
| CN[C@@H](C)C(=O)N[C@H](C(=O)N1CCC[C@H]1CN(Cc1cccc(-c2ccccc2)c1)C(=O)CCCCCCCCC(=O)N(Cc1cccc(-c2ccccc2)c1)C[C@@H]1CCCN1C(=O)[C@@H](NC(=O)[C@H](C)NC)C(C)(C)C)C(C)(C)C [Compound 75] | 10 to 25 nM |
| CN[C@@H](C)C(=O)N[C@H](C(=O)N1CCC[C@H]1CN(CCc1ccccc1)C(=O)CCCC(=O)N(CCc1ccccc1)C[C@@H]1CCCN1C(=O)[C@@H](NC(=O)[C@H](C)NC)C(C)(C)C)C(C)(C)C [Compound 3] | 10 to 25 nM |
| CN[C@@H](C)C(=O)N[C@H](C(=O)N1CCC[C@H]1CN(CCc1ccc(F)cc1)C(=O)CNC(=O)c1ccc(C(=O)NCC(=O)N(CCc2ccc(F)cc2)C[C@@H]2CCCN2C(=O)[C@@H](NC(=O)[C@H](C)NC)C(C)(C)C)cc1)C(C)(C)C [Compound 71] | < 10 nM |
| CN[C@@H](C)C(=O)N[C@H](C(=O)N1CCC[C@H]1C(=O)N(CCc1ccccc1)Cc1ccc(CN(CCc2ccccc2)C(=O)[C@@H]2CCCN2C(=O)[C@@H](NC(=O)[C@H](C)NC)C(C)(C)C)cc1)C(C)(C)C [Compound 79] | 10 to 25 nM |
| CN[C@@H](C)C(=O)N[C@H](C(=O)N1CCC[C@H]1CN(CCc1ccccc1)C(=O)c1ccc(-c2cccc(C(=O)N(CCc3ccccc3)C[C@@H]3CCCN3C(=O)[C@@H](NC(=O)[C@H](C)NC)C(C)(C)C)c2)cc1)C(C)(C)C [Compound 64] | 10 to 25 nM |
| CN[C@@H](C)C(=O)N[C@H](C(=O)N1CCC[C@H]1CN(CCc1ccccc1)C(=O)c1ccc(Oc2ccc(C(=O)N(CCc3ccccc3)C[C@@H]3CCCN3C(=O)[C@@H](NC(=O)[C@H](C)NC)C(C)(C)C)cc2)cc1)C(C)(C)C [Compound 27] | > 25 nM |

| SMILES | EC50 |
| --- | --- |
| CN[C@@H](C)C(=O)N[C@H](C(=O)N1CCC[C@H]1CN(CCc1ccccc1)C(=O)CCC(=O)N(CCc1ccccc1)C[C@@H]1CCCN1C(=O)[C@@H](NC(=O)[C@H](C)NC)C(C)(C)C)C(C)(C)C [Compound 6] | > 25 nM |
| CN[C@@H](C)C(=O)N[C@H](C(=O)N1CCC[C@H]1CN(CCc1ccccc1)C(=O)CNC(=O)c1ccc2ccc(C(=O)NCC(=O)N(CCc3ccccc3)C[C@@H]3CCCN3C(=O)[C@@H](NC(=O)[C@H](C)NC)C(C)(C)C)cc2c1)C(C)(C)C [Compound 85] | < 10 nM |
| CN[C@@H](C)C(=O)N[C@H](C(=O)N1CCC[C@H]1CN(CCc1ccccc1)C(=O)CCCCCCCCCCC(=O)N(CCc1ccccc1)C[C@@H]1CCCN1C(=O)[C@@H](NC(=O)[C@H](C)NC)C(C)(C)C)C(C)(C)C [Compound 18] | 10 to 25 nM |
| CN[C@@H](C)C(=O)N[C@H](C(=O)N1CCC[C@H]1CN(CCc1ccccc1)S(=O)(=O)c1ccc2cc(S(=O)(=O)N(CCc3ccccc3)C[C@@H]3CCCN3C(=O)[C@@H](NC(=O)[C@H](C)NC)C(C)(C)C)ccc2c1)C(C)(C)C [Compound 92] | < 10 nM |
| CN[C@@H](C)C(=O)N[C@H](C(=O)N1CCC[C@H]1CN(CCc1ccccc1)S(=O)(=O)c1ccc(-c2ccc(S(=O)(=O)N(CCc3ccccc3)C[C@@H]3CCCN3C(=O)[C@@H](NC(=O)[C@H](C)NC)C(C)(C)C)cc2)cc1)C(C)(C)C [Compound 13] | 10 to 25 nM |
| CN[C@@H](C)C(=O)N[C@H](C(=O)N1CCC[C@H]1CN(CCc1ccc(F)cc1)C(=O)c1ccc(-c2ccc(C(=O)N(CCc3ccc(F)cc3)C[C@@H]3CCCN3C(=O)[C@@H](NC(=O)[C@H](C)NC)C(C)(C)C)cc2)cc1)C(C)(C)C [Compound 58] | 10 to 25 nM |
| CN[C@@H](C)C(=O)N[C@H](C(=O)N1CCC[C@H]1CN(CCc1ccccc1)C(=O)CNC(=O)CCCCC(=O)NCC(=O)N(CCc1ccccc1)C[C@@H]1CCCN1C(=O)[C@@H](NC(=O)[C@H](C)NC)C(C)(C)C)C(C)(C)C [Compound 50] | 10 to 25 nM |
| CN[C@@H](C)C(=O)N[C@H](C(=O)N1CCC[C@H]1CN(CCc1ccccc1)C(=O)c1ccc(C(=O)N(CCc2ccccc2)C[C@@H]2CCCN2C(=O)[C@@H](NC(=O)[C@H](C)NC)C(C)(C)C)cc1)C(C)(C)C [Compound 1] | 10 to 25 nM |
| CN[C@@H](C)C(=O)N[C@H](C(=O)N1CCC[C@H]1CN(CCc1ccccc1)S(=O)(=O)c1cccc(S(=O)(=O)N(CCc2ccccc2)C[C@@H]2CCCN2C(=O)[C@@H](NC(=O)[C@H](C)NC)C(C)(C)C)c1)C(C)(C)C [Compound 36] | < 10 nM |
| CN[C@@H](C)C(=O)N[C@H](C(=O)N1CCC[C@H]1CN(CCc1ccccc1)C(=O)CCCCCCCCC(=O)N(CCc1ccccc1)C[C@@H]1CCCN1C(=O)[C@@H](NC(=O)[C@H](C)NC)C(C)(C)C)C(C)(C)C [Compound 2] | < 10 nM |
| CN[C@@H](C)C(=O)N[C@H](C(=O)N1CCC[C@H]1CN(CCc1ccccc1)C(=O)CNC(=O)c1cccc(C(=O)NCC(=O)N(CCc2ccccc2)C[C@@H]2CCCN2C(=O)[C@@H](NC(=O)[C@H](C)NC)C(C)(C)C)n1)C(C)(C)C [Compound 88] | > 25 nM |
| CN[C@@H](C)C(=O)N[C@H](C(=O)N1CCC[C@H]1CN(CCc1ccccc1)C(=O)CCCCCCC(=O)N(CCc1ccccc1)C[C@@H]1CCCN1C(=O)[C@@H](NC(=O)[C@H](C)NC)C(C)(C)C)C(C)(C)C [Compound 7] | 10 to 25 nM |
| CN[C@@H](C)C(=O)N[C@H](C(=O)N1CCC[C@H]1CN(CCc1ccccc1)C(=O)CNC(=O)c1ccc2cc(C(=O)NCC(=O)N(CCc3ccccc3)C[C@@H]3CCCN3C(=O)[C@@H](NC(=O)[C@H](C)NC)C(C)(C)C)ccc2c1)C(C)(C)C [Compound 63] | < 10 nM |
| CN[C@@H](C)C(=O)N[C@H](C(=O)N1CCC[C@H]1CN(C[C@@H](C)c1ccccc1)C(=O)CCCCCCCCC(=O)N(C[C@@H]1CCCN1C(=O)[C@@H](NC(=O)[C@H](C)NC)C(C)(C)C)C[C@@H](C)c1ccccc1)C(C)(C)C [Compound 22] | > 25 nM |
| CN[C@@H](C)C(=O)N[C@H](C(=O)N1CCC[C@H]1CN(CCc1ccc(F)cc1)C(=O)CNC(=O)C(=O)NCC(=O)N(CCc1ccc(F)cc1)C[C@@H]1CCCN1C(=O)[C@@H](NC(=O)[C@H](C)NC)C(C)(C)C)C(C)(C)C [Compound 73] | < 10 nM |
| CN[C@@H](C)C(=O)N[C@@H](CC1CCCCC1)C(=O)N1CCC[C@H]1CN(CCc1ccccc1)C(=O)CCCCCCCCC(=O)N(CCc1ccccc1)C[C@@H]1CCCN1C(=O)[C@H](CC1CCCCC1)NC(=O)[C@H](C)NC [Compound 9] | > 25 nM |
| CN[C@@H](C)C(=O)N[C@H](C(=O)N1CCC[C@H]1CN(CCc1ccccc1)C(=O)[C@@H](C)NC(=O)c1ccc(C(=O)N[C@H](C)C(=O)N(CCc2ccccc2)C[C@@H]2CCCN2C(=O)[C@@H](NC(=O)[C@H](C)NC)C(C)(C)C)cc1)C(C)(C)C [Compound 59] | < 10 nM |
